We go through five compounds from patent publication US6803380B1, “5-aryl-1h-1,2,4-triazole compounds as inhibitors of cyclooxygenase-2 and pharmaceutical compositions containing them” (Laboratoire Theramex, priority 1999, dated 2004).

Series [1] concerns the target cyclooxygenase-1 (Homo sapiens, UniProt P23219). The conditions noted are these: literature; cited from earlier work.
Series [2] addresses T1, cyclooxygenase-2 (Homo sapiens, UniProt P35354).
T1 sequence (P35354 18-604): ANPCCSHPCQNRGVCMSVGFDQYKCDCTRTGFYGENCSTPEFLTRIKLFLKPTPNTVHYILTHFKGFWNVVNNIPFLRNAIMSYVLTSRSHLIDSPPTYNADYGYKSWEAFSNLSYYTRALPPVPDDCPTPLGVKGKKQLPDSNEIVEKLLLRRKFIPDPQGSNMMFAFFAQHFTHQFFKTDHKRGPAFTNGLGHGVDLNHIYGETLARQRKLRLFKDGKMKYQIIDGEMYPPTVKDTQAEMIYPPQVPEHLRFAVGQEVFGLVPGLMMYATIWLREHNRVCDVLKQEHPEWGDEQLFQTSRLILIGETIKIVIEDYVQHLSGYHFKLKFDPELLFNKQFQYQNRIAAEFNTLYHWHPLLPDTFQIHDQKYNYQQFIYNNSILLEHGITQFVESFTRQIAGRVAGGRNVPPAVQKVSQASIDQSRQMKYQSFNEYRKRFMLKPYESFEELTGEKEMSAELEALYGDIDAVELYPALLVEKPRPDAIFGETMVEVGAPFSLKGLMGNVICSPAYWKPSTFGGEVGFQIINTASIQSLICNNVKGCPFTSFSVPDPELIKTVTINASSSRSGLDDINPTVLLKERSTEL
As to conditions: literature; cited from earlier work.

For series [3], the target named is T2, Cox-2 (Homo sapiens, UniProt P35354).
T2 sequence (P35354 18-604): T1 sequence (P35354 18-604)
The conditions noted are these: literature; cited from earlier work.

The target in series [4] is T3, COX-2 (Ovis aries, UniProt P79208).
T3 construct: purified COX-2 from ewe placenta; purchased Cayman Chemicals; host or cells: ewe placenta (tissue-purified)
T3 sequence (P79208 17-603): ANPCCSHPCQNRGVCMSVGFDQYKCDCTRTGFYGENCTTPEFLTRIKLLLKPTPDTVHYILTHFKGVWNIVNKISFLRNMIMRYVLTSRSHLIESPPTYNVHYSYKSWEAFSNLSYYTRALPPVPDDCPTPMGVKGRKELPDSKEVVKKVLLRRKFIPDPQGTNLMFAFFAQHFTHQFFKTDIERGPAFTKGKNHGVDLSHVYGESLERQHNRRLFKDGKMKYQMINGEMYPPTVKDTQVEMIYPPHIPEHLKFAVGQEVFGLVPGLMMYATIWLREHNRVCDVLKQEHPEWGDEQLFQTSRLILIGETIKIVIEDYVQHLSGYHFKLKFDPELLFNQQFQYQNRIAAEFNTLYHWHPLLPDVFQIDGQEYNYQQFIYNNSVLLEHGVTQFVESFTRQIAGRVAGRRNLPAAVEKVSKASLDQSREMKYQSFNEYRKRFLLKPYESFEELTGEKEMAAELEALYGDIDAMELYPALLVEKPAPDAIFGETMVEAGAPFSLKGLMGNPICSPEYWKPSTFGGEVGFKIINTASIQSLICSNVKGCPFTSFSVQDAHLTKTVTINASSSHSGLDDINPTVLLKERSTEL
Put plainly: Inhibition of purified COX-2 activity in vitro (PGE2 by enzymo-immunoassay). It is filed as biochemical, ewe. As to conditions: for selective inhibition of COX-2 (in words) / inhibition at 1 µM: concentration 1 μM; for inhibition at 1 µM: read-out: % COX-2 inhibition; for COX-2 inhibitory potency compared with nimesulide (in words): same concentration, 1 μM. Here is the method:
(§1) Example compounds according to the invention were tested for their ability to inhibit COX-1 and/or COX-2 activities in vitro. Purified COX-1 from ram seminal vesicles and purified COX-2 from ewe placenta (both from Cayman Chemicals) were incubated for 10 minutes at 25° C. in the presence of their substrate, arachidonic acid (5 μM), with or without test compounds or standard inhibitors. Prostaglandin E2, the reaction product, was measured by enzymo-immunoassay (R&D Systems). Each individual value results from duplicate determinations. Final inhibition data are means±standard errors of at least (3) independent experiments performed on as many different days.

In series [5] the target is T4, COX-1 (Ovis aries, UniProt P05979).
T4 construct: Purified COX-1 from ram seminal vesicles; purchased Cayman Chemicals; host or cells: ram seminal vesicles (tissue-purified)
T4 sequence (P05979 25-600): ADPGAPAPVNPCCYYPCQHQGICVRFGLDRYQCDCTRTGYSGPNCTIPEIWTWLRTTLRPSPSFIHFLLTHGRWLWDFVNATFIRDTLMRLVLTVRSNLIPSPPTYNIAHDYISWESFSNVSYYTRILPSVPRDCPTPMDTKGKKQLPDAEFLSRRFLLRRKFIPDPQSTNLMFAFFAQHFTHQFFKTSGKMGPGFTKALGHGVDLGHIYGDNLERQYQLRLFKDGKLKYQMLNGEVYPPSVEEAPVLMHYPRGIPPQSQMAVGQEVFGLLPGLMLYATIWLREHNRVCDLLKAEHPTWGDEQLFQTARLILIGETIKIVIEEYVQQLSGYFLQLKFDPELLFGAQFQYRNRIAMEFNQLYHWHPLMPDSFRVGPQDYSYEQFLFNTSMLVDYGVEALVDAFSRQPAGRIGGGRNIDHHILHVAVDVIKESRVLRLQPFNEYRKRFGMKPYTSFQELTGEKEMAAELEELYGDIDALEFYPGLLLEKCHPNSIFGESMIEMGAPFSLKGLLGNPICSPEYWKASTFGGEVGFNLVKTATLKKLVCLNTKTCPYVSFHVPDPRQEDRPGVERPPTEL
Kind of series: Inhibition of purified COX-1 activity in vitro (PGE2 by enzymo-immunoassay). As to conditions: concentration 1 μM; for % COX-1 inhibition: negative sign = inhibition. It is filed as biochemical, ram. Here is the method: as §1

cyclooxygenase-1, sequence (P23219 24-599, species assumed): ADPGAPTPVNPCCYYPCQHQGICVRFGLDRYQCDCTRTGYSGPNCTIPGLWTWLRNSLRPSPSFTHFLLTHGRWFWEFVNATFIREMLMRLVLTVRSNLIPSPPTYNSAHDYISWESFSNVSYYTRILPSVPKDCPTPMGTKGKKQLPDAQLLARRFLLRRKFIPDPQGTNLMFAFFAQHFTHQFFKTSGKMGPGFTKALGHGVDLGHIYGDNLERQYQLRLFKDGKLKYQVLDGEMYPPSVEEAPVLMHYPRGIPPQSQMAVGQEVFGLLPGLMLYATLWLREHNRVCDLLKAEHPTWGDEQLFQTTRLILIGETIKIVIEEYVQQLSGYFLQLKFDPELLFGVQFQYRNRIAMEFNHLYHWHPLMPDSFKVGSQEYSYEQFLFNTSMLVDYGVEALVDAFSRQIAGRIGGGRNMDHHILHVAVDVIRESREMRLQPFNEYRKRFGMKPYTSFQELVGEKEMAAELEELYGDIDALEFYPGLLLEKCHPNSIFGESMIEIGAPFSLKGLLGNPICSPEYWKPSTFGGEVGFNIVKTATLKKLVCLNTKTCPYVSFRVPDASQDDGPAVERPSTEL

Take `CS(=O)(=O)c1ccc(-c2nc(C#N)nn2-c2ccc(F)cc2)cc1` [compound (b)]: the “inhibition of cyclooxygenase-1 (in words)” value in series [1] was “weak and non selective inhibitors”. For the same compound, in series [2], the “inhibition of cyclooxygenase-2 (in words)” value is “weak and non selective inhibitors”.

As for `Fc1ccc(-c2nc(C(F)(F)F)nn2-c2ccc(Cl)cc2)cc1` [compound (a)], in series [3], the “Cox-2 inhibitory activity (in words)” value is “moderate Cox-2 inhibitory activity”.

As to `CS(=O)(=O)c1ccc(-c2nc(C(F)(F)F)nn2-c2ccc(Br)cc2)cc1` [Example 18, 1-(4-bromo-phenyl)-5-(4-methylsulfonyl-phenyl)-3-trifluoromethyl-1H-1,2,4-triazole], the melting point came to 198 °C. In addition, in series [4], the “selective inhibition of COX-2 (in words)” value is listed as “able to inhibit COX-2 selectively”, the inhibition at 1 µM is 53% and the “COX-2 inhibitory potency compared with nimesulide (in words)” value was “even more potent”. For the same compound, the “COX-2 potency relative to nimesulide” value in series [4] (same inhibition at 1 μM vs. 10 μM nimesulide) is on record as “about 10 times”. Also, in series [5], the “inhibition of COX-1 (in words)” value is “did not show any significant inhibition of COX-1” and the “% COX-1 inhibition” value was −5 ± 12%.

As for `COc1ccc(-n2nc(C(F)(F)F)nc2-c2ccc(S(C)(=O)=O)cc2)cc1` [Example 17, 1-(4-methoxy-phenyl)-5-(4-methylsulfonyl-phenyl)-3-trifluoromethyl-1H-1,2,4-triazole], the melting point turned out to be 156 °C. In series [4], the “selective inhibition of COX-2 (in words)” value was “able to inhibit COX-2 selectively”, the inhibition at 1 µM was 44 ± 6.8% and the “COX-2 inhibitory potency compared with nimesulide (in words)” value is on record as “even more potent”. For the same compound, in series [5], the “inhibition of COX-1 (in words)” value is on record as “did not show any significant inhibition of COX-1” and the “% COX-1 inhibition” value is given as “+8 ± 2.7%”.

`COc1ccc(-n2nc(C)nc2-c2ccc(S(C)(=O)=O)cc2)cc1` [Example 10, 1-(4-methoxy-phenyl)-3-methyl-5-(4-methylsulfonyl-phenyl)-1H-1,2,4-triazole] came in with a melting point of 128 °C. Also, in series [4], the “selective inhibition of COX-2 (in words)” value is “able to inhibit COX-2 selectively” and the inhibition at 1 µM came to 32 ± 4.5%. Besides, in series [5], the “inhibition of COX-1 (in words)” value is “did not show any significant inhibition of COX-1” and the “% COX-1 inhibition” value is −4 ± 14.6%.
